Results taken from US12077503B2, “Substituted cyclic amides and their use as herbicides” (FMC CORPORATION, priority 2015, dated 2024).

What was measured:
Type in all cases: in vivo
[1] = system: barnyardgrass (Echinochloa crus-galli); test: Test B flooded paddy test; conditions: Echinochloa crus-galli, 250 g ai/ha, Flood; 0 to 100 scale where 0 is no effect and 100 is complete control; read-out: Barnyardgrass plant response rating
Outline: (§1)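 Compound goes directly into floodwater once pots are flooded 3 cm above soil, targeting plants at two leaves; the water depth is then held for the test duration. Plants sit 13–15 d in a greenhouse and are rated visually, 100 denoting complete control.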

[2] = system: sedge, umbrella (small-flower umbrella sedge, Cyperus difformis); test: Test B flooded paddy test; conditions: Cyperus difformis, 250 g ai/ha, Flood; 0 to 100 scale where 0 is no effect and 100 is complete control; read-out: Sedge, Umbrella plant response rating
Outline: as §1

rice (Oryra sativa) = test: Test B flooded paddy test; conditions: Oryza sativa, 250 g ai/ha, Flood; 0 to 100 scale where 0 is no effect and 100 is complete control; read-out: Rice plant response rating
Outline: as §1

[3] = system: ducksalad (Heteranthera limosa); test: Test B flooded paddy test; conditions: Heteranthera limosa, 250 g ai/ha, Flood; 0 to 100 scale where 0 is no effect and 100 is complete control; read-out: Ducksalad plant response rating
Outline: as §1

[4] = system: pigweed (Amaranthus retroflexus); test: Test A preemergence; conditions: Amaranthus retroflexus, pre-emergence, 240 h, 0 to 100 scale where 0 is no effect and 100 is complete control, read-out: Pigweed plant response rating; for pest or weed control at 31 g/ha: 31 g ai/ha, Preemergence; for pest or weed control at 125 g/ha: 125 g ai/ha, preemergence, visual injury rating, approximately 10 d
[5] = system: ragweed (common ragweed, Ambrosia elatior); test: Test A preemergence; conditions: Ambrosia artemisiifolia, pre-emergence, 240 h, 0 to 100 scale where 0 is no effect and 100 is complete control, read-out: Ragweed plant response rating; for pest or weed control at 31 g/ha: 31 g ai/ha, Preemergence; for pest or weed control at 125 g/ha: 125 g ai/ha, preemergence, visual injury rating, approximately 10 d
Outline: (§2)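 Ratings of 0 (no effect) to 100 (complete control) come from visual comparison with untreated controls roughly 10 d after treatment. Test chemicals, formulated in a non-phytotoxic solvent mixture with surfactant, were applied either as a preemergence directed soil spray on seeded soil or postemergence to one- to two-leaf plants 2 to 10 cm tall.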

[6] = system: barnyardgrass (Echinochloa crus-galli); test: Test A preemergence; conditions: Echinochloa crus-galli, pre-emergence, 240 h, 0 to 100 scale where 0 is no effect and 100 is complete control, read-out: Barnyardgrass plant response rating; for pest or weed control at 31 g/ha: 31 g ai/ha, Preemergence; for pest or weed control at 125 g/ha: 125 g ai/ha, preemergence, visual injury rating, approximately 10 d
Outline: as §2

Kochia (Kochia scoparia) [7] = test: Test A preemergence; conditions: Bassia scoparia, pre-emergence, 240 h, 0 to 100 scale where 0 is no effect and 100 is complete control, read-out: Kochia plant response rating; for pest or weed control at 31 g/ha: 31 g ai/ha, Preemergence; for pest or weed control at 125 g/ha: 125 g ai/ha, preemergence, visual injury rating, approximately 10 d
Outline: as §2

[8] = system: giant foxtail (Setaria faberii); test: Test A preemergence; conditions: Setaria faberi, pre-emergence, 240 h, 0 to 100 scale where 0 is no effect and 100 is complete control, read-out: Foxtail, Giant plant response rating; for pest or weed control at 31 g/ha: 31 g ai/ha, Preemergence; for pest or weed control at 125 g/ha: 125 g ai/ha, preemergence, visual injury rating, approximately 10 d
Outline: as §2

[9] = system: ryegrass, Italian (Italian ryegrass, Lolium multiflorum); test: Test A preemergence; conditions: Lolium multiflorum, pre-emergence, 240 h, 0 to 100 scale where 0 is no effect and 100 is complete control, read-out: Ryegrass, Italian plant response rating; for pest or weed control at 31 g/ha: 31 g ai/ha, Preemergence; for pest or weed control at 125 g/ha: 125 g ai/ha, preemergence, visual injury rating, approximately 10 d
Outline: as §2

[10] = system: pigweed (Amaranthus retroflexus); test: Test A postemergence; conditions: Amaranthus retroflexus, post-emergence, 240 h, Postemergence, read-out: Pigweed plant response rating (0 to 100 scale); for pest or weed control at 125 g/ha: 125 g ai/ha, visual rating about 10 d after treatment; for pest or weed control at 31 g/ha: 31 g ai/ha, 0 is no effect, 100 is complete control
Outline: as §2

[11] = system: ragweed (common ragweed, Ambrosia elatior); test: Test A postemergence; conditions: Ambrosia artemisiifolia, post-emergence, 240 h, Postemergence, read-out: Ragweed plant response rating (0 to 100 scale); for pest or weed control at 125 g/ha: 125 g ai/ha, visual rating about 10 d after treatment; for pest or weed control at 31 g/ha: 31 g ai/ha, 0 is no effect, 100 is complete control
Outline: as §2

[12] = system: barnyardgrass (Echinochloa crus-galli); test: Test A postemergence; conditions: Echinochloa crus-galli, post-emergence, 240 h, Postemergence; for pest or weed control at 125 g/ha: 125 g ai/ha, visual rating about 10 d after treatment, read-out: Barnyardgrass plant response rating (0 to 100 scale, 0 no effect, 100 complete control); for pest or weed control at 31 g/ha: 31 g ai/ha, 0 is no effect, 100 is complete control, read-out: Barnyardgrass plant response rating (0 to 100 scale)
Outline: as §2

[13] = system: wheat (Triticum aestivum); test: Test A postemergence; conditions: Triticum aestivum, post-emergence, 240 h, Postemergence, read-out: Wheat plant response rating (0 to 100 scale); for plant injury at 125 g/ha: 125 g ai/ha, visual rating about 10 d after treatment; for plant injury at 31 g/ha: 31 g ai/ha, 0 is no effect, 100 is complete control
Outline: as §2

Kochia (Kochia scoparia) [14] = test: Test A postemergence; conditions: Bassia scoparia, post-emergence, 240 h, Postemergence, read-out: Kochia plant response rating (0 to 100 scale); for pest or weed control at 125 g/ha: 125 g ai/ha, visual rating about 10 d after treatment; for pest or weed control at 31 g/ha: 31 g ai/ha, 0 is no effect, 100 is complete control
Outline: as §2

[15] = system: giant foxtail (Setaria faberii); test: Test A postemergence; conditions: Setaria faberi, post-emergence, 240 h, Postemergence, read-out: Foxtail, Giant plant response rating (0 to 100 scale); for pest or weed control at 125 g/ha: 125 g ai/ha, visual rating about 10 d after treatment; for pest or weed control at 31 g/ha: 31 g ai/ha, 0 is no effect, 100 is complete control
Outline: as §2

corn (Zea mays) = test: Test A postemergence; conditions: Zea mays, post-emergence, 240 h, Postemergence, read-out: Corn plant response rating (0 to 100 scale); for plant injury at 125 g/ha: 125 g ai/ha, visual rating about 10 d after treatment; for plant injury at 31 g/ha: 31 g ai/ha, 0 is no effect, 100 is complete control
Outline: as §2

[16] = system: blackgrass (Alopecurus myosuroides); test: Test A postemergence; conditions: Alopecurus myosuroides, post-emergence, 240 h, Postemergence, read-out: Blackgrass plant response rating (0 to 100 scale); for pest or weed control at 125 g/ha: 125 g ai/ha, visual rating about 10 d after treatment; for pest or weed control at 31 g/ha: 31 g ai/ha, 0 is no effect, 100 is complete control
Outline: as §2

[17] = system: ryegrass, Italian (Italian ryegrass, Lolium multiflorum); test: Test A postemergence; conditions: Lolium multiflorum, post-emergence, 240 h, Postemergence, read-out: Ryegrass, Italian plant response rating (0 to 100 scale); for pest or weed control at 125 g/ha: 125 g ai/ha, visual rating about 10 d after treatment; for pest or weed control at 31 g/ha: 31 g ai/ha, 0 is no effect, 100 is complete control
Outline: as §2

[18] = system: Galium (catchweed bedstraw, Galium aparine); test: Test A postemergence; conditions: Galium, post-emergence, 240 h, Postemergence, read-out: Galium plant response rating (0 to 100 scale); for pest or weed control at 125 g/ha: 125 g ai/ha, visual rating about 10 d after treatment; for pest or weed control at 31 g/ha: 31 g ai/ha, 0 is no effect, 100 is complete control
Outline: as §2

| SMILES | pest or weed control at 250 g/ha [1] [%] | pest or weed control at 250 g/ha [2] [%] | pest or weed control at 250 g/ha (rice (Oryra sativa)) [%] | pest or weed control at 250 g/ha [3] [%] | pest or weed control at 31 g/ha [4] [%] | pest or weed control at 125 g/ha [4] [%] | pest or weed control at 31 g/ha [5] [%] | pest or weed control at 125 g/ha [5] [%] | pest or weed control at 31 g/ha [6] [%] | pest or weed control at 125 g/ha [6] [%] | pest or weed control at 31 g/ha (Kochia (Kochia scoparia) [7]) [%] | pest or weed control at 125 g/ha (Kochia (Kochia scoparia) [7]) [%] | pest or weed control at 31 g/ha [8] [%] | pest or weed control at 125 g/ha [8] [%] | pest or weed control at 31 g/ha [9] [%] | pest or weed control at 125 g/ha [9] [%] | pest or weed control at 125 g/ha [10] [%] | pest or weed control at 31 g/ha [10] [%] | pest or weed control at 125 g/ha [11] [%] | pest or weed control at 31 g/ha [11] [%] | other results |
| --- | --- | --- | --- | --- | --- | --- | --- | --- | --- | --- | --- | --- | --- | --- | --- | --- | --- | --- | --- | --- | --- |
| CN1C[C@H](c2csc3c2CCCC3)[C@@H](C(=O)Nc2cccc(F)c2F)C1=O [Compound 1276] | 65 | 0 | 25 | 90 | 0 | 30 | 20 | 80 | 90 | 100 | 30 | 60 | 90 | 100 | 0 | 30 | 0 | 0 | 0 | 0 | pest or weed control at 125 g/ha [12]: 100%; pest or weed control at 31 g/ha [12]: 70%; plant injury at 125 g/ha [13]: 0%; plant injury at 31 g/ha [13]: 0%; pest or weed control at 125 g/ha (Kochia (Kochia scoparia) [14]): 0%; pest or weed control at 31 g/ha (Kochia (Kochia scoparia) [14]): 0%; pest or weed control at 125 g/ha [15]: 60%; pest or weed control at 31 g/ha [15]: 30%; plant injury at 125 g/ha (corn (Zea mays)): 0%; plant injury at 31 g/ha (corn (Zea mays)): 0%; pest or weed control at 125 g/ha [16]: 0%; pest or weed control at 31 g/ha [16]: 0%; pest or weed control at 125 g/ha [17]: 0%; pest or weed control at 31 g/ha [17]: 0%; pest or weed control at 125 g/ha [18]: 0%; pest or weed control at 31 g/ha [18]: 0% |
| O=C1NC[C@H](c2csc3c2CCOC3)[C@H]1C(=O)Nc1cccc(F)c1F [Compound 1279] | 40 | 0 | 30 | 100 | 0 | 0 | 0 | 0 | 0 | 70 | 0 | 0 | 0 | 20 | 0 | 0 | 0 | 0 | 0 | 0 | pest or weed control at 125 g/ha [12]: 50%; pest or weed control at 31 g/ha [12]: 0%; plant injury at 125 g/ha [13]: 0%; plant injury at 31 g/ha [13]: 0%; pest or weed control at 125 g/ha (Kochia (Kochia scoparia) [14]): 0%; pest or weed control at 31 g/ha (Kochia (Kochia scoparia) [14]): 0%; pest or weed control at 125 g/ha [15]: 20%; pest or weed control at 31 g/ha [15]: 0%; plant injury at 125 g/ha (corn (Zea mays)): 0%; plant injury at 31 g/ha (corn (Zea mays)): 0%; pest or weed control at 125 g/ha [16]: 20%; pest or weed control at 31 g/ha [16]: 0%; pest or weed control at 125 g/ha [17]: 0%; pest or weed control at 31 g/ha [17]: 0%; pest or weed control at 125 g/ha [18]: 30%; pest or weed control at 31 g/ha [18]: 0% |
